According to PubChem BioAssay (NCI):
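These data come from cells grown in 96-well plates and exposed to compound for 48 hours at five concentrations. At the GI50, growth is halved. The concentration for full growth arrest is given as TGI.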

Legend:
Experiment in all cases: NCI tumour cell line growth inhibition, 48 h
[1] = test system: HS 578T breast
[2] = test system: NCI-H460 lung
[3] = test system: SNB-19 CNS
[4] = test system: SW-620 colon
[5] = test system: M14 melanoma
[6] = test system: HOP-92 NSCLC
[7] = test system: SNB-75 CNS
[8] = test system: MDA-MB-231 breast
[9] = test system: MCF7 breast
[10] = test system: MOLT-4 leukemia
[11] = test system: UACC-257 melanoma
[12] = test system: BT-549 breast
[13] = test system: K-562 leukemia
[14] = test system: CCRF-CEM leukemia
[15] = test system: UACC-62 melanoma
[16] = test system: HT29 colon
[17] = test system: NCI-H522 lung
[18] = test system: KM12 colon
[19] = test system: T-47D breast
[20] = test system: HCC-2998 colon
[21] = test system: EKVX NSCLC
[22] = test system: OVCAR-8 ovarian
[23] = test system: COLO 205 colon
[24] = test system: A498 renal
[25] = test system: LOX IMVI melanoma
[26] = test system: HCT-15 colon
[27] = test system: IGROV1 ovarian
[28] = test system: U251 CNS
[29] = test system: HCT-116 colon
[30] = test system: SK-MEL-2 melanoma
[31] = test system: CAKI-1 renal
[32] = test system: NCI/ADR-RES ovarian
[33] = test system: ACHN renal
[34] = test system: OVCAR-5 ovarian
[35] = test system: MALME-3M melanoma
[36] = test system: SK-OV-3 ovarian
[37] = test system: OVCAR-3 ovarian
[38] = test system: MDA-MB-468 breast
[39] = test system: HOP-62 NSCLC
[40] = test system: 786-0 renal
[41] = test system: SK-MEL-28 melanoma
[42] = test system: UO-31 renal
[43] = test system: SF-539 CNS
[44] = test system: PC-3 prostate
[45] = test system: SN12C renal
[46] = test system: OVCAR-4 ovarian
[47] = test system: HL-60(TB) leukemia
[48] = test system: RXF 393 renal
[49] = test system: SK-MEL-5 melanoma
[50] = test system: MDA-MB-435
[51] = test system: NCI-H23 lung
[52] = test system: SF-295 CNS
[53] = test system: DU-145 prostate
[54] = test system: SF-268 CNS
[55] = test system: TK-10 renal
[56] = test system: RPMI-8226 leukemia
[57] = test system: A549 NSCLC
[58] = test system: NCI-H226 lung

COc1ccc(-c2nc3cc(C)ccc3n2CC(=O)N=Nc2c(O)[nH]c3ccc(Br)cc23)cc1
GI50 [1]: 1.96 µM | TGI [1]: 6.44 µM | GI50 [2]: 1.86 µM | TGI [2]: 4.1 µM | GI50 [3]: 3.14 µM | TGI [3]: 49.6 µM | GI50 [4]: 2.4 µM | TGI [4]: 9.15 µM | GI50 [5]: 1.6 µM | TGI [5]: 3.49 µM | GI50 [6]: 1.34 µM | TGI [6]: 4.59 µM | GI50 [7]: 1.61 µM | TGI [7]: 12.7 µM | GI50 [8]: 2.17 µM | TGI [8]: 7.97 µM | GI50 [9]: 2.23 µM | TGI [9]: 10.2 µM | GI50 [10]: 3.22 µM | TGI [10]: 44.5 µM | GI50 [11]: 1.95 µM | TGI [11]: 6.33 µM | GI50 [12]: 2.05 µM | TGI [12]: 5.92 µM | GI50 [13]: 3.66 µM | TGI [13]: > 84.5 µM | GI50 [14]: 3.05 µM | TGI [14]: 32.1 µM | GI50 [15]: 1.78 µM | TGI [15]: 6.09 µM | GI50 [16]: 1.98 µM | TGI [16]: 4.36 µM | GI50 [17]: 7.39 µM | TGI [17]: 31.1 µM | GI50 [18]: 2.81 µM | TGI [18]: 16 µM | GI50 [19]: 2.85 µM | TGI [19]: 34.6 µM | GI50 [20]: 2.75 µM | TGI [20]: 16.4 µM | GI50 [21]: 2.1 µM | TGI [21]: 11.2 µM | GI50 [22]: 1.58 µM | TGI [22]: 3.49 µM | GI50 [23]: 2.29 µM | TGI [23]: 8.06 µM | GI50 [24]: 24.9 µM | TGI [24]: 60.1 µM | GI50 [25]: 1.48 µM | TGI [25]: 3.29 µM | GI50 [26]: 2.83 µM | TGI [26]: 16.9 µM | GI50 [27]: 2.93 µM | TGI [27]: 18.2 µM | GI50 [28]: 1.64 µM | TGI [28]: 3.55 µM | GI50 [29]: 1.88 µM | TGI [29]: 4.49 µM | GI50 [30]: 3.28 µM | TGI [30]: 18.6 µM | GI50 [31]: 3.6 µM | TGI [31]: 29.1 µM | GI50 [32]: 1.88 µM | TGI [32]: 5 µM | GI50 [33]: 2.38 µM | TGI [33]: 8.75 µM | GI50 [34]: 2.56 µM | TGI [34]: 13.6 µM | GI50 [35]: 1.59 µM | TGI [35]: 3.2 µM | GI50 [36]: 3.92 µM | TGI [36]: 38.3 µM | GI50 [37]: 1.93 µM | TGI [37]: 4.29 µM | GI50 [38]: 1.88 µM | TGI [38]: 4.41 µM | GI50 [39]: 2.31 µM | TGI [39]: 9.66 µM | GI50 [40]: 3.48 µM | TGI [40]: 16.6 µM | GI50 [41]: 1.51 µM | TGI [41]: 2.96 µM | GI50 [42]: 19.4 µM | TGI [42]: > 84.5 µM | GI50 [43]: 1.55 µM | TGI [43]: 3.36 µM | GI50 [44]: 2.07 µM | TGI [44]: 14.5 µM | GI50 [45]: 2.16 µM | TGI [45]: 10.6 µM | GI50 [46]: 2.76 µM | TGI [46]: 11.2 µM | GI50 [47]: 5.51 µM | TGI [47]: > 84.5 µM | GI50 [48]: 1.33 µM | TGI [48]: 3.54 µM | GI50 [49]: 2.59 µM | TGI [49]: 8.3 µM | GI50 [50]: 2.12 µM | TGI [50]: 7.52 µM | GI50 [51]: 1.93 µM | TGI [51]: 5.88 µM | GI50 [52]: 2.93 µM | TGI [52]: 14.2 µM | GI50 [53]: 3.29 µM | TGI [53]: 16.1 µM | GI50 [54]: 2.94 µM | TGI [54]: 31.7 µM | GI50 [55]: 3.63 µM | TGI [55]: 20.6 µM | GI50 [56]: 2.98 µM | TGI [56]: 42.2 µM | GI50 [57]: 1.75 µM | TGI [57]: 3.95 µM | GI50 [58]: 1.97 µM | TGI [58]: 7.23 µM
